Data reported in ChEMBL document CHEMBL5465560, “Selectivity Literature for EUbOPEN Chemogenomic Library” (2024).
Each block holds one compound with its values, some of them ahead of it.

How the values were obtained:
[1] = biological target: CDK9/cyclin T1 (Homo sapiens, UniProt P50750); assay: Selectivity interaction (Radiometric kinase assay ) EUB0000090b CDK9; type: protein-complex assay
[2] = biological target: T1, Serine/threonine-protein kinase ULK3 (Homo sapiens) (UniProt Q6PHR2); assay: Selectivity interaction (Ambit KINOMEscan and KiNATiv profiling in Jurkat cells) EUB0000090b ULK3; type: cell-based; conditions: at 1 µM
T1 sequence (whole entry): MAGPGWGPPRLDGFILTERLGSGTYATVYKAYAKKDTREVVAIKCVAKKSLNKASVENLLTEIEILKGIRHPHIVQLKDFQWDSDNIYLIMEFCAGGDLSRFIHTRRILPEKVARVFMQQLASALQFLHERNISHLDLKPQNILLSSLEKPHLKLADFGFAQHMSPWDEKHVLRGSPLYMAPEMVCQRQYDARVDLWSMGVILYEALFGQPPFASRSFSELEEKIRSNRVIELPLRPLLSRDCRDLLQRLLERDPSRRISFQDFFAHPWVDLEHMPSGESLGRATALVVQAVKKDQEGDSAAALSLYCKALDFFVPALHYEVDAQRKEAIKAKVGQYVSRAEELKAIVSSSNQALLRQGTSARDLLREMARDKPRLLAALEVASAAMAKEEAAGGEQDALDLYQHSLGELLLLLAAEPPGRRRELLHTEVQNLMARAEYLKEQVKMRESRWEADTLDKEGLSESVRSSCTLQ

[3] = biological target: Aurora kinase B (Homo sapiens, UniProt Q96GD4); assay: Selectivity interaction (Enzymatic assay) EUB0001199aCl AURKB
[4] = biological target: MAP kinase-interacting serine/threonine-protein kinase 1 (Homo sapiens) (UniProt Q9BUB5); assay: Selectivity interaction (Kinase panel (literature)) EUB0001199aCl MKNK1; conditions: at 1 µM
[5] = biological target: T2, Cyclin-dependent kinase-like 2 (Homo sapiens) (UniProt Q92772); assay: Selectivity interaction (KinomeScan (DiscoverX)) EUB0000607a CDKL2; conditions: at 10 µM
T2 sequence (whole entry): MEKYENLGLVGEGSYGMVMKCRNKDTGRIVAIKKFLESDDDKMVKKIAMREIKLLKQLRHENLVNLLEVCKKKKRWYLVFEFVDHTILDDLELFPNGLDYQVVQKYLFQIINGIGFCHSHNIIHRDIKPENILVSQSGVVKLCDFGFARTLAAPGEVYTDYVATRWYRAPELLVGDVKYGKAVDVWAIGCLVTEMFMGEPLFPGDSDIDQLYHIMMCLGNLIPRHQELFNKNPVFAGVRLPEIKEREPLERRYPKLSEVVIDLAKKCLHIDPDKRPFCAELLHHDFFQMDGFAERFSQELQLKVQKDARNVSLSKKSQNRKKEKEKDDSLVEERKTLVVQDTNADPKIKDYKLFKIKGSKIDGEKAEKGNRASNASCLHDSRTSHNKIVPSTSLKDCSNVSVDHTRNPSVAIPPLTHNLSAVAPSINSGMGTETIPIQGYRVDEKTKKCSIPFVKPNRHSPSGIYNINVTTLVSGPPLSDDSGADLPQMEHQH

[6] = biological target: RAC-gamma serine/threonine-protein kinase (Homo sapiens, UniProt Q9Y243); assay: Selectivity interaction (KinomeScan (DiscoverX)) EUB0000045b AKT3
[7] = biological target: T3, Serine/threonine-protein kinase LATS2 (Homo sapiens) (UniProt Q9NRM7); conditions: at 10 µM
T3 sequence (whole entry): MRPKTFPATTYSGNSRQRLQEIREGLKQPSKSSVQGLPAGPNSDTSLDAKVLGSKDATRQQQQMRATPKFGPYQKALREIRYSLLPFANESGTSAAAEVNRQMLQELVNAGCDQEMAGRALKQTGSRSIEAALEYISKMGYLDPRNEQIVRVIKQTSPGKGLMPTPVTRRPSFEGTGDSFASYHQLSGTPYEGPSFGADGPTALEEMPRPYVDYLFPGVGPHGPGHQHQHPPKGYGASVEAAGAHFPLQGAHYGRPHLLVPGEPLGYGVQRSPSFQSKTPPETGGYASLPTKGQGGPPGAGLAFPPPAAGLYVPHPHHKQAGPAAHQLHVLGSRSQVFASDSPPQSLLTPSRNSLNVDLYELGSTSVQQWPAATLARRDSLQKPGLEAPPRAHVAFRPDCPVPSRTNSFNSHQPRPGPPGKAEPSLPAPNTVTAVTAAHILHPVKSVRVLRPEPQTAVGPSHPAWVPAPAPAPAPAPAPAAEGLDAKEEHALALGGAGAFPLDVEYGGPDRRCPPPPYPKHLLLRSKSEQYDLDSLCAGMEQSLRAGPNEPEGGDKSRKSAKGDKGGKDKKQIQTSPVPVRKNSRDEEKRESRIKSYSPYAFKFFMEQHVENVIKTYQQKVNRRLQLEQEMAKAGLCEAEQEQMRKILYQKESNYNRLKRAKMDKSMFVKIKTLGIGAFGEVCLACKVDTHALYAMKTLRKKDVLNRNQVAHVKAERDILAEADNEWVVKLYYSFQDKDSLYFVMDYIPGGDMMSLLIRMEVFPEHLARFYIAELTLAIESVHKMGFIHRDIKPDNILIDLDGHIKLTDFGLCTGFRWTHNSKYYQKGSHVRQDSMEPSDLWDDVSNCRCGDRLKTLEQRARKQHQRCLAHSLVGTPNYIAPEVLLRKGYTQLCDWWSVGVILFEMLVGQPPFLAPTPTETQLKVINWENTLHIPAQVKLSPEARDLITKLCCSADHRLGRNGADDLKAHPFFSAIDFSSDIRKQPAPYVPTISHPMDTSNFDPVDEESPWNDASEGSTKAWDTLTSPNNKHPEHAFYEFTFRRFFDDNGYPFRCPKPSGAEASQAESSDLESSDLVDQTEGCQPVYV

[8] = biological target: Tyrosine-protein kinase Fer (Homo sapiens) (UniProt P16591); assay: Selectivity interaction (ActivX KiNativ screen (kinase selectivity in THP-1 cell lysates)) EUB0000639a FER; type: subcellular; conditions: lysate, at 1 µM
[9] = biological target: MAP kinase-interacting serine/threonine-protein kinase 1 (Homo sapiens) (UniProt Q9BUB5); assay: Selectivity interaction (Kinase panel (Invitrogen)) EUB0000639a MKNK1; conditions: at 200 nM
[10] = biological target: Rho-associated protein kinase 2 (Homo sapiens, UniProt O75116); assay: Selectivity interaction (Kinase panel (Invitrogen)) EUB0000639a ROCK2; conditions: at 200 nM
[11] = biological target: Serine/threonine-protein kinase PAK 6 (Homo sapiens) (UniProt Q9NQU5); assay: Selectivity interaction (KinomeScan (DiscoverX)) EUB0001049a PAK6; conditions: at 1 µM
[12] = biological target: Ribosomal protein S6 kinase beta-1 (Homo sapiens, UniProt P23443); assay: Selectivity interaction (KinomeScan (DiscoverX)) EUB0000666a RPS6KB1; conditions: at 10 µM
[13] = biological target: Mitogen-activated protein kinase 8 (Homo sapiens, UniProt P45983); assay: Selectivity interaction (KinomeScan (DiscoverX)) EUB0000695a MAPK8; conditions: at 100 nM
Mitogen-activated protein kinase 8, sequence (P45983 whole entry): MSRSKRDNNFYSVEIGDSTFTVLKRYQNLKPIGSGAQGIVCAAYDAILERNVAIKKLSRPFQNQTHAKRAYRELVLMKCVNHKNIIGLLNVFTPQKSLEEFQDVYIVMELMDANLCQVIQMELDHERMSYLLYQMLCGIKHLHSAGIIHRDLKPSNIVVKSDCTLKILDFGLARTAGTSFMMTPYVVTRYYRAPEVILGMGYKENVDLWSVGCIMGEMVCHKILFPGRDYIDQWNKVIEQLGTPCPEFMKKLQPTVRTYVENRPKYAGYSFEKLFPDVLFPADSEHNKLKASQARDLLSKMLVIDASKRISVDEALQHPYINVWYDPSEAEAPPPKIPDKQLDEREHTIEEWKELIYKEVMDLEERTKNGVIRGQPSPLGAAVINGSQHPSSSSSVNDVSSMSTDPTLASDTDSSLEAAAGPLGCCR

MAP kinase-interacting serine/threonine-protein kinase 1 (Homo sapiens), sequence (Q9BUB5 whole entry, looked up): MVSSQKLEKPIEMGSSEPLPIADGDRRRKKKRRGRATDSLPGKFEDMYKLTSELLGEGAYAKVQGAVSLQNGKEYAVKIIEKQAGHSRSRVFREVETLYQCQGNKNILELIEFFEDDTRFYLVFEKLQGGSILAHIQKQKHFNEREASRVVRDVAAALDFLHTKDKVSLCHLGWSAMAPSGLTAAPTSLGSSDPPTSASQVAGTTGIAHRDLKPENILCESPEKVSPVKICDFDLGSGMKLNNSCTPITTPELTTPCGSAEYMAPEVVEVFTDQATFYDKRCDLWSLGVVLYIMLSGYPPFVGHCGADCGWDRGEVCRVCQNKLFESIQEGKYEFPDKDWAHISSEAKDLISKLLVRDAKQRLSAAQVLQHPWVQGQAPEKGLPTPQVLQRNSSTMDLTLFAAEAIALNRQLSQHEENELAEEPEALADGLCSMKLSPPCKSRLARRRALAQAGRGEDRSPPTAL
RAC-gamma serine/threonine-protein kinase, sequence (Q9Y243 whole entry): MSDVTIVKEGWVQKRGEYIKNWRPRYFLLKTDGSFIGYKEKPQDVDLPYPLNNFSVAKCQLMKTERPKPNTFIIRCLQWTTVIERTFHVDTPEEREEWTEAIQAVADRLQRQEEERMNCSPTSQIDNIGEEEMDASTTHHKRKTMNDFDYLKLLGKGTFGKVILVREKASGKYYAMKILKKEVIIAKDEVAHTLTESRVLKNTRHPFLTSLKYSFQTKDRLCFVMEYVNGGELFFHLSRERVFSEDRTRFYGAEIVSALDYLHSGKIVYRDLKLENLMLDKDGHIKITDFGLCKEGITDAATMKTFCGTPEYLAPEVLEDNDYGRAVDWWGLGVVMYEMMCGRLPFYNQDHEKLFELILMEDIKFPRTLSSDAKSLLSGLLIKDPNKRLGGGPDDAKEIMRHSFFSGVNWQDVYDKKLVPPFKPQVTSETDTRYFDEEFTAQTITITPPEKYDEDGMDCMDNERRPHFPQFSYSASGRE
CDK9/cyclin T1, sequence (O60563 whole entry): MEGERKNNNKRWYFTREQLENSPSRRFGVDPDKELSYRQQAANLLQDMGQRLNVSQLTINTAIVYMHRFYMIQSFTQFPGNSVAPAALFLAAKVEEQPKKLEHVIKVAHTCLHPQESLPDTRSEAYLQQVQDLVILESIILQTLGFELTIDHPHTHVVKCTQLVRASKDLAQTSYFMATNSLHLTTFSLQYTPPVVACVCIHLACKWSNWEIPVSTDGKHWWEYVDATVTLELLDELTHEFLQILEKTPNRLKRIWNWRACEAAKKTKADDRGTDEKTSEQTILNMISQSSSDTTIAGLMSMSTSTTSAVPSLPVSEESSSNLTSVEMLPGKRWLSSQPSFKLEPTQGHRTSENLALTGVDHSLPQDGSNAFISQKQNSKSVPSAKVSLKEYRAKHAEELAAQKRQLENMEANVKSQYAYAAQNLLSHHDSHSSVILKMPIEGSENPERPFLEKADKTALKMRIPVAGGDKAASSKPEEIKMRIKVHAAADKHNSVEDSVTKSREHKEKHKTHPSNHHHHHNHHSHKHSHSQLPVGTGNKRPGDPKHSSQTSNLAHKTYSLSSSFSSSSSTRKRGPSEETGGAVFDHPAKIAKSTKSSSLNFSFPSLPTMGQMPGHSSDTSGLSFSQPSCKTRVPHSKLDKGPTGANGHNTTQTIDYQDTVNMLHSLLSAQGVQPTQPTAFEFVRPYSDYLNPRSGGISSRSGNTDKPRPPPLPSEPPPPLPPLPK
CDK9/cyclin T1, sequence (P50750 whole entry): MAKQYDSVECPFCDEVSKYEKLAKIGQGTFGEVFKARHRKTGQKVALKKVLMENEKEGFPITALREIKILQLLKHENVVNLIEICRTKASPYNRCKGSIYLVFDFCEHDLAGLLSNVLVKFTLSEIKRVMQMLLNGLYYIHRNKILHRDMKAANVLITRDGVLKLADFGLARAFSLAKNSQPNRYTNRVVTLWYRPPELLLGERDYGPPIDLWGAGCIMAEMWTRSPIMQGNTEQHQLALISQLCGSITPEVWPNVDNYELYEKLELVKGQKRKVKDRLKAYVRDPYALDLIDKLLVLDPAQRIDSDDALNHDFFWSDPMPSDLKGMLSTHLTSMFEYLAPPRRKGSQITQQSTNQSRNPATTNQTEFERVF
Aurora kinase B, sequence (Q96GD4 whole entry): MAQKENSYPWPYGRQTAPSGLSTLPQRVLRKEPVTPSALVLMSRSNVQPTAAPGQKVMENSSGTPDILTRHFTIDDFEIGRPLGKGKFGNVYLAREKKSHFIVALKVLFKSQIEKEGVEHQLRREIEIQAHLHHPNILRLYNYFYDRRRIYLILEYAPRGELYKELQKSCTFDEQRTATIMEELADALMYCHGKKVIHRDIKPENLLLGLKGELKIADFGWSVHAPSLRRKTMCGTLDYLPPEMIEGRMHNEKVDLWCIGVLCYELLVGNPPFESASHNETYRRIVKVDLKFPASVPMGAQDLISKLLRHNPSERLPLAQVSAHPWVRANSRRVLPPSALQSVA
Tyrosine-protein kinase Fer (Homo sapiens), sequence (P16591 whole entry, looked up): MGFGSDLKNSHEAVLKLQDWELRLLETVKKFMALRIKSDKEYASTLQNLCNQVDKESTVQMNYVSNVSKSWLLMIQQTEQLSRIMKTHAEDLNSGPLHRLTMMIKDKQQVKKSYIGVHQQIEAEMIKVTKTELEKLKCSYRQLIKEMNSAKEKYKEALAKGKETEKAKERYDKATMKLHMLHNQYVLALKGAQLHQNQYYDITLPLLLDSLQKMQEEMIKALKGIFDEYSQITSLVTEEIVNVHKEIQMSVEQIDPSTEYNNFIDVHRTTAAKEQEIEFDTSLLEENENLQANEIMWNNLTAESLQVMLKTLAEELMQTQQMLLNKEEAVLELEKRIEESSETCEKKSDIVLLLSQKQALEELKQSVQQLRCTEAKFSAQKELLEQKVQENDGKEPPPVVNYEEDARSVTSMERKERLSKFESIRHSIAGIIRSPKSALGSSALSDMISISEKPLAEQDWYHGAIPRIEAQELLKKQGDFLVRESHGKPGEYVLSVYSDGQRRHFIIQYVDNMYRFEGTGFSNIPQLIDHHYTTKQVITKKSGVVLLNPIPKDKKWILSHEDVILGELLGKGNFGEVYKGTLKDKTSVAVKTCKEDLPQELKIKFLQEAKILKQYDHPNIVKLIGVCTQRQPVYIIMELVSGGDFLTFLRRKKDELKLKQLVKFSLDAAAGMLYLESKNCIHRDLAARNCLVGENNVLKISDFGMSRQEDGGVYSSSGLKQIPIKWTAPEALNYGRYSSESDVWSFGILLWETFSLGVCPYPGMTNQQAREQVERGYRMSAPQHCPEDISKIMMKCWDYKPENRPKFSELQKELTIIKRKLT
Ribosomal protein S6 kinase beta-1, sequence (P23443 whole entry, looked up): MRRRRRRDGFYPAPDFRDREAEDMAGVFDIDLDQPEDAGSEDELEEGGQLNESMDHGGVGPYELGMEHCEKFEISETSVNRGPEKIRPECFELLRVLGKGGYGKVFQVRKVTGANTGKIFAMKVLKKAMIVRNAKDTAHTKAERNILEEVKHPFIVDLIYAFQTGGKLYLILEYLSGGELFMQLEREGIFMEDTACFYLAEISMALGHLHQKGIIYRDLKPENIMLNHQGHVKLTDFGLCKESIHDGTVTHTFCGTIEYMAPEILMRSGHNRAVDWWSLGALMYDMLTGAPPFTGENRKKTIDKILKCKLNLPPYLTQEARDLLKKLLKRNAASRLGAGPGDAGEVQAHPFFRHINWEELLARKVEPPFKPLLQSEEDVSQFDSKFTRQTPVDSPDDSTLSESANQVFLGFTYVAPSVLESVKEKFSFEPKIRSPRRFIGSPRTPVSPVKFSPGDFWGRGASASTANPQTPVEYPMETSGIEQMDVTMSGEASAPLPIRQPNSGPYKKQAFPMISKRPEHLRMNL
Serine/threonine-protein kinase PAK 6 (Homo sapiens), sequence (Q9NQU5 whole entry, looked up): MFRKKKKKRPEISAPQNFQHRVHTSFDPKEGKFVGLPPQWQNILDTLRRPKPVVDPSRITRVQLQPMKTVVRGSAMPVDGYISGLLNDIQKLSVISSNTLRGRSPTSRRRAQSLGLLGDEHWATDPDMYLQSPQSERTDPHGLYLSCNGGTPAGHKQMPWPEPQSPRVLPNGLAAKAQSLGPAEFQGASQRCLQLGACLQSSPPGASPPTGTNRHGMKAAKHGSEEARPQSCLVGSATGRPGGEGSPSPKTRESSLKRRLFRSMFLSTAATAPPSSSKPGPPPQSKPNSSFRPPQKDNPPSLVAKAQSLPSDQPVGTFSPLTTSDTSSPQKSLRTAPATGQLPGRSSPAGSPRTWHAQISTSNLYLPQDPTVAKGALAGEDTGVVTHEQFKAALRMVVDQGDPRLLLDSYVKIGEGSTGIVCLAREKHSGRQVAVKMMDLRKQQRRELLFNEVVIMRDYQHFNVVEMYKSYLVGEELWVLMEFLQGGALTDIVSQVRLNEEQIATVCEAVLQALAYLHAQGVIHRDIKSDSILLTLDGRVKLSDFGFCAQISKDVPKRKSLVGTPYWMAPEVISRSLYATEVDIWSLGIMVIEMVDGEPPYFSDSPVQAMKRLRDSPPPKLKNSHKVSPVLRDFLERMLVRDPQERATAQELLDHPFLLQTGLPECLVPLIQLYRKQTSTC

Compound: CN(C)C/C=C/C(=O)Nc1ccc(C(=O)N2CCCC(Nc3ncc(Cl)c(-c4c[nH]c5ccccc45)n3)C2)cc1 (centres undefined)
IC50 [1]: 10.5 µM | % of control [2]: 87%

IC50 [3]: 10.2 µM | % of inhibition [4]: -1%
Compound: CN1Cc2nccc(-c3cn(C)nc3-c3ccc(F)cc3)c2C1=O

Compound: CNC(=O)Nc1ccc(-c2nc(N3CC4CCC(C3)O4)c3cnn(C4CCC5(CC4)OCCO5)c3n2)cc1
% of control [5]: 100%

Compound: C=CC(=O)Nc1cc(-n2c(=O)ccc3cnc4ccc(-c5ccc(NS(C)(=O)=O)cc5)cc4c32)ccc1C
% of control ([6]; at 1 µM): 75% | % of control ([6]; at 10 µM): 100%

Compound: Cc1cc([C@@H](C)Nc2ccccc2C(=O)O)c2nc(N3CCOCC3)cc(=O)n2c1 [AZD-6482]
% of control [7]: 63%

% of inhibition [8]: -8.9% | % of inhibition [9]: 46.2% | % of inhibition [10]: 18.6%
Compound: CC[C@@H]1[C@H](F)C(=O)N[C@@H]1COc1nccc2cc(C(N)=O)c(OC)cc12 [ZIMLOVISERTIB]

Compound: COc1cc(Nc2nc(C)cc(-c3cnn4nc(OC)ccc34)n2)cc(C(F)(F)F)c1
% of control [11]: 75%

Compound: O=C(NOC[C@H](O)CO)c1ccc(F)c(F)c1Nc1ccc(I)cc1F
% of control [12]: 100%

Compound: Cc1cc(F)c(C(=O)Nc2cccc(-c3nncn3C(C)C)n2)cc1-n1cnc(C2CC2)c1
% of control [13]: 72%
